The numbers were not newly measured in patent publication US20210349074A1, “METHOD OF TESTING TEARS AS A BIOMARKER FOR CANNABINOIDS” (priority 2020, published 2021), which cites them from elsewhere.

The conditions of this data set: during the first two hours after using cannabis.

As to `CCCCCc1cc(O)c2c(c1)OC(C)(C)[C@@H]1CCC(C)=C[C@@H]21` [THC, Δ9-tetrahydrocannabinol], the “average drop of participants' THC blood levels” value is recorded as 5 ng/mL.
